What was measured:
[1] = Assessment of behaviour and mortality in mice (Irwin's method); set-up: species or system mice (male Crl:(CD-1)(ICR)BR); details: mouse, in vivo; oral, dose 1000 (unit inferred), 4 animals/dose
Protocol: (§1) ASSESSMENT OF BEHAVIOUR AND MORTALITY IN MICE
(§2) The assessment of normal behaviour in mice was carried out following S. Irwin's method (Psychopharmacologia, 13, 222 [1968]). This method allows alterations in some behavioural, neurophysiologic and neurovegetative parameters to be detected, which are directly observable by the researcher. The study was conducted using male Crl:(CD-1)(ICR)BR mice (Charles River-Italy) weighing 22-25 g. following oral administration of the compounds suspended in carboxymethylcellulose (0.5% by weight in H2 O) to groups of 4 animals/dose.
(§3) The animals were continously kept under observation for five hours following treatment and twice a day in the subsequent five days. Mortality was also observed during the overall test period.

mice = assay: as above; set-up: species or system mice (male Crl:(CD-1)(ICR)BR); details: mouse, in vivo, po
Protocol: as §1, §2, §3

Candida albicans (562) = assay: MIC for yeast and yeast-like strains; assay type: cell-based; details: 48 hours, 35° C., read-out: Minimal Inhibitory Concentration (MIC)
Protocol: (§4) The following strains were used (the number of strains is in brackets): Candida (13); Criptococcus (2); Saccharormyces (1); Torulopsis (1).
(§5) Yeast Nitrogen Base supplemented with 0.15% asparagine and 1.0% glucose (as carbon source) was the medium utilized in the assays.
(§6) This medium was buffered with 0.165 M 2-(N-morpholino) propane sulfonic acid (MOPS), a non-chelating buffer. […]
(§7) The inoculum was prepared from an overnight broth culture (a 48-hour culture only for Cryptococcus) in Sabouraud broth and appropriately diluted to yield a final suspension containing approximately 5.0×10^6 Colony Forming Units per ml (CFU/ml), when compared to the Mc Farland's standard control (BRAY W. E., Clinical Laboratory Methods, 5th Ed. C. V. MOSBY, St. Louis, Mo, 1957).
(§8) After further diluting (1:50), a […] volume of such fungal suspensions and an equal volume of the substance solutions were distributed into each well of a microtiter plate (96 wells, round bottom). Such a procedure eventually allowed for an "in vitro" antimycotic activity assay utilizing final fungal inocula of approximately 5.0×10^4 CFU/ml.

Candida albicans (A 54) = assay: MIC for yeast and yeast-like strains; assay type: cell-based; details: 48 hours, 35° C., read-out: Minimal Inhibitory Concentration (MIC)
Protocol: as §4, §5, §6, §7, §8

Candida albicans (Ca 2) = assay: MIC for yeast and yeast-like strains; assay type: cell-based; details: 48 hours, 35° C., read-out: Minimal Inhibitory Concentration (MIC)
Protocol: as §4, §5, §6, §7, §8

[2] = tested on: Candida tropicalis (5705); assay: MIC for yeast and yeast-like strains; assay type: cell-based; details: 48 hours, 35° C., read-out: Minimal Inhibitory Concentration (MIC)
Protocol: as §4, §5, §6, §7, §8

[3] = tested on: Cryptococcus neoformans (4711); assay: MIC for yeast and yeast-like strains; assay type: cell-based; details: 48 hours, 35° C., read-out: Minimal Inhibitory Concentration (MIC)
Protocol: as §4, §5, §6, §7, §8

[4] = tested on: Saccharomyces cerevisiae (ATCC 7752); assay: MIC for yeast and yeast-like strains; assay type: cell-based; details: ATCC7752, 48 hours, 35° C., read-out: Minimal Inhibitory Concentration (MIC)
Protocol: as §4, §5, §6, §7, §8

[5] = tested on: Torulopsis candida (D.S.); assay: MIC for yeast and yeast-like strains; assay type: cell-based; details: Suzukiozyma candida; 48 hours, 35° C.; read-out: Minimal Inhibitory Concentration (MIC)
Protocol: as §4, §5, §6, §7, §8

Candida albicans (PG) = assay: MIC and MFC for yeast and yeast-like strains; assay type: cell-based; details: 48 hours, 35° C., read-out: Minimal Inhibitory Concentration (MIC)
Protocol: as §4, §5
(§9) This medium was buffered with 0.165 M 2-(N-morpholino) propane sulfonic acid (MOPS), a non-chelating buffer.
(§10) Antimicrob. Agents Cheroother. Aug. 34.8:1542-1545).
as §7, §8
(§11) The minimal fungicidal concentration was evaluated by spot-transferring onto Petri dishes, containing Sabouraud agar, 0.01-ml volumes of all the samples showing no visible fungal growth.

[6] = tested on: Candida albicans (ATCC 2091); assay: MIC for yeast and yeast-like strains; assay type: cell-based; details: ATCC2091, 48 hours, 35° C., read-out: Minimal Inhibitory Concentration (MIC)
Protocol: as §4, §5, §9, §10, §7, §8

[7] = tested on: Candida pseudotropicalis (EC 1); assay: MIC for yeast and yeast-like strains; assay type: cell-based; details: Kluyveromyces marxianus; 48 hours, 35° C.; read-out: Minimal Inhibitory Concentration (MIC)
Protocol: as §4, §5, §9, §10, §7, §8

yeast-like fungi = assay: MIC / MFC for yeast-like fungi, all strains; assay type: cell-based, Candida, Cryptococcus, Saccharomyces, Torulopsis; details: versus susceptible strains; read-out: Mean MIC values
Protocol: as §4, §5, §6, §7, §8, §11

[8] = tested on: Aspergillus fumigatus (1/A); assay: MIC for filamentous fungi; assay type: cell-based; details: read-out: Minimal Inhibitory Concentration (MIC)
Text: (§12) The following strains were used (the number of strains is in brackets): Aspergillus (5); Fusarium (1); Mucor (1); Penicillium (1).
(§13) The tested substances were: ST 712, ST 722, ST 982, ST 983, ST 1000, ST 1001, ST 1032, ST 1033, ST 1034, ST 1036, ST 1037, ST 1038, ST 1050, ST 1051, ST 1052, ST 1053. The assay medium was the same as the one used in the previous study. The conidia from 72-hour cultures in Sabouraud agar, collected by washing with Sabouraud medium and Tween 80 (one drop of Tween per 10 ml of medium), were utilized as inoculum (5.0×10^4 CFU/ml).
(§14) The assay was performed using the same procedure as described for yeast-like fungi.
(§15) Also the evaluation of MIC and MFC was as reported previously.

[9] = tested on: Aspergillus fumigatus (2/A); assay: MIC for filamentous fungi; assay type: cell-based; details: read-out: Minimal Inhibitory Concentration (MIC)
Text: as §12, §13, §14, §15

[10] = tested on: Aspergillus fumigatus (ATCC 28212); assay: MIC for filamentous fungi; assay type: cell-based; details: ATCC28212, read-out: Minimal Inhibitory Concentration (MIC)
Text: as §12, §13, §14, §15

[11] = tested on: Aspergillus fumigatus (C/1); assay: MIC for filamentous fungi; assay type: cell-based; details: read-out: Minimal Inhibitory Concentration (MIC)
Text: as §12, §13, §14, §15

[12] = tested on: Aspergillus niger (ATCC 16404); assay: MIC for filamentous fungi; assay type: cell-based; details: ATCC16404, read-out: Minimal Inhibitory Concentration (MIC)
Text: as §12, §13, §14, §15

Mucor mucedo (ATCC 7941) = assay: MIC for filamentous fungi; assay type: cell-based; details: ATCC7941, read-out: Minimal Inhibitory Concentration (MIC)
Text: as §12, §13, §14, §15

filamentous fungi = assay: MIC / MFC for filamentous fungi, all strains; assay type: cell-based, Aspergillus, Fusarium, Mucor, Penicillium; details: versus susceptible strains; read-out: Mean MIC values
Text: as §12, §13, §14, §15

## CCCCCCCCCCCOC(=O)C[C@H](C[N+](C)(C)C)OC(=O)C(C)C [ST 712, ISOBUTYRYL-L-CARNITINE UNDECYL ESTER CHLORIDE]
[1]
  mortality at 120 h: 0%
mice
  Symptoms: NONE
Candida albicans (562)
  MIC: 12.5 mg/L
Candida albicans (A 54)
  MIC: 12.5 mg/L
Candida albicans (Ca 2)
  MIC: 6.25 mg/L
[2]
  MIC: 3.12 mg/L
[3]
  MIC: 3.12 mg/L
[4]
  MIC: 6.25 mg/L
[5]
  MIC: 12.5 mg/L
Candida albicans (PG)
  MIC: 12.5 mg/L
[6]
  MIC: 12.5 mg/L
[7]
  MIC: 12.5 mg/L
yeast-like fungi
  MIC: 9.37 mg/L
[8]
  MIC: 25 mg/L
[9]
  MIC: 25 mg/L
[10]
  MIC: 25 mg/L
[11]
  MIC: 25 mg/L
[12]
  MIC: 50 mg/L
Mucor mucedo (ATCC 7941)
  MIC: 50 mg/L
Filamentous fungi
  MIC: 30 mg/L

Reference: patent publication US5525627A, “Esters of acyl carnitines with long-chain aliphatic alcohols and pharmaceutical compositions containing same having antimycotic activity” (Sigma-Tau Industrie Farmaceutiche Riunite S.p.A., priority 1992, dated 1996)
